The text below walks through data of patent US7754919B2, “Non-nucleoside reverse transcriptase inhibitors” (Roche Palo Alto LLC, priority 2005, dated 2010).

SMILES strings stand for the structures.

In one data set the target is HIV-1 RT (Human immunodeficiency virus type 1 group M subtype B, UniProt P03366). Nature of the data set: Homopolymer HIV Reverse Transcriptase Assay: Inhibitor IC50 Determination. It counts as biochemical. The following applies: purified recombinant enzyme, poly(rA)/oligo(dT)16 template-primer, [3H] dTTP, 37° C. 30 min. The protocol: Homopolymer HIV Reverse Transcriptase Assay: Inhibitor IC50 Determination
HIV-1 RT assay was carried out in 96-well Millipore MultiScreen MADVNOB50 plates using purified recombinant enzyme and a poly(rA)/oligo(dT)16 template-primer in a total volume of 50 μL. The assay constituents were 50 mM Tris/HCl, 50 mM NaCl, 1 mM EDTA, 6 mM MgCl2, 5 μM dTTP, 0.15 μCi [^3H] dTTP, 5 μg/ml poly (rA) pre annealed to 2.5 μg/ml oligo (dT)16 and a range of inhibitor concentrations in a final concentration of 10% DMSO. reactions were initiated by adding 4 nM HIV-1 RT and after incubation at 37° C. for 30 min, they were stopped by the addition of 50 μl ice cold 20%TCA and allowed to precipitate at 4° C. for 30 min. The precipitates were collected by applying vacuum to the plate and sequentially washing with 3×200 μl of 10% TCA and 2×200 μl 70% ethanol. Finally, the plates were dried and radioactivity counted in a Packard TopCounter after the addition of 25 μl scintillation fluid per well. IC50's were calculated by plotting % inhibition versus log10 inhibitor concentrations.
On to `Cc1cc(C(=O)NCCN(C)C)ccc1NC(=O)Cc1ccc(Cl)c(Oc2cc(Cl)cc(C#N)c2)c1F` [Compound I-5, 4-{2-[4-Chloro-3-(3-chloro-5-cyano-phenoxy)-2-fluoro-phenyl]-acetylamino}-N-(2-dimethylamino-ethyl)-3-methyl-benzamide; compound with trifluoro-acetic acid], for which the IC50 was 15.4 nM.
For `Cc1cc(C(=O)NC[C@@H](C)O)ccc1NC(=O)Cc1ccc(Cl)c(Oc2cc(Cl)cc(C#N)c2)c1F` [Compound I-10, 4-{2-[4-Chloro-3-(3-chloro-5-cyano-phenoxy)-2-fluoro-phenyl]-acetylamino}-N-((R)-2-hydroxy-propyl)-3-methyl-benzamide], the IC50 came to 18.3 nM.
`Cc1cc(C(=O)NCc2cccnc2)ccc1NC(=O)Cc1ccc(Cl)c(Oc2cc(Cl)cc(C#N)c2)c1F` [Compound I-15, 4-{2-[4-Chloro-3-(3-chloro-5-cyano-phenoxy)-2-fluoro-phenyl]-acetylamino}-3-methyl-N-pyridin-3-ylmethyl-benzamide; compound with trifluoro-acetic acid]: the IC50 was determined as 16.6 nM.
With `Cc1cc(C(=O)NCC(O)CO)ccc1NC(=O)Cc1ccc(Cl)c(Oc2cc(Cl)cc(C#N)c2)c1F` (centres unmarked) [Compound I-20, 4-{2-[4-Chloro-3-(3-chloro-5-cyano-phenoxy)-2-fluoro-phenyl]-acetylamino}-N-(2,3-dihydroxy-propyl)-3-methyl-benzamide], the IC50 was found to be 20.6 nM.
Consider `Cc1cc(C(=O)NCCN2CCC(O)CC2)ccc1NC(=O)Cc1ccc(Br)c(Oc2cc(Cl)cc(C#N)c2)c1F` [Compound I-25, 4-{2-[4-Bromo-3-(3-chloro-5-cyano-phenoxy)-2-fluoro-phenyl]-acetylamino}-N-[2-(4-hydroxy-piperidin-1-yl)-ethyl]-3-methyl-benzamide], for which the IC50 stood at 55.2 nM.
In the case of `Cc1cc(C(=O)NCCN2CCNCC2)ccc1NC(=O)Cc1ccc(Br)c(Oc2cc(Cl)cc(C#N)c2)c1F` [Compound I-30, 4-{2-[4-Bromo-3-(3-chloro-5-cyano-phenoxy)-2-fluoro-phenyl]-acetylamino}-3-methyl-N-(2-piperazin-1-yl-ethyl)-benzamide], the IC50 was found to be 20.9 nM.

Test system in another data set: not given
Assay: not given
Conditions: not given
The compound `Cc1cc(C(=O)O)ccc1NC(=O)Cc1ccc(Br)c(Oc2cc(C#N)cc(C(F)F)c2)c1F` returned a melting point of 267.9 to 268.1 °C.
Still for that read-out and setting: the same measure for `Cc1cc(C(=O)NCCN(C)C)ccc1NC(=O)Cc1ccc(Br)c(Oc2cc(C#N)cc(C(F)F)c2)c1F`: 205.6 to 206.6 °C.
Still for that read-out and setting: the same measure for `N#Cc1cc(Cl)cc(Oc2c(Cl)ccc(CC(=O)Nc3ccc(C(=O)O)cc3Cl)c2F)c1`: 242 to 243 °C; for `Cc1cc(C(N)=O)ccc1NC(=O)Cc1ccc(Cl)c(Oc2cc(Cl)cc(C#N)c2)c1F`: 255.9 to 257.1 °C; for `CN(C)CCNC(=O)c1ccc(NC(=O)Cc2ccc(Cl)c(Oc3cc(Cl)cc(C#N)c3)c2F)c(Cl)c1`: 202.8 to 203.6 °C.
Same read-out and setting: next, `Cc1cc(C(=O)O)ccc1NC(=O)Cc1ccc(Br)c(Oc2cc(Cl)cc(C#N)c2)c1F`: 270 to 270.8 °C.
In the case of `Cc1cc(C(=O)NCCN2CCS(=O)(=O)CC2)ccc1NC(=O)Cc1ccc(Br)c(Oc2cc(Cl)cc(C#N)c2)c1F`, the melting point was 168.1 to 170.1 °C.
In turn, `Cc1cc(C(=O)NC(C)CN(C)C)ccc1NC(=O)Cc1ccc(Br)c(Oc2cc(Cl)cc(C#N)c2)c1F` (centres unmarked) had a melting point of 222 to 223.2 °C.
The same measure, in the same setting: next, `Cc1cc(C(=O)NCCN2CCCC2)ccc1NC(=O)Cc1ccc(Br)c(Oc2cc(Cl)cc(C#N)c2)c1F`: 214.7 to 216.9 °C.
In turn, `Cc1cc(C(=O)NCCN2CCOCC2)ccc1NC(=O)Cc1ccc(Br)c(Oc2cc(Cl)cc(C#N)c2)c1F` yielded a melting point of 219.8 to 222 °C.
Still for that read-out and setting: next, `Cc1cc(C(=O)NCCN)ccc1NC(=O)Cc1ccc(Cl)c(Oc2cc(Cl)cc(C#N)c2)c1F`: 207.6 to 208.6 °C; `Cc1cc(C(=O)O)ccc1NC(=O)Cc1ccc(Cl)c(Oc2cc(Cl)cc(C#N)c2)c1F`: 287.1 to 289.1 °C; `Cc1cc(C(=O)NC2CCNC2)ccc1NC(=O)Cc1ccc(Br)c(Oc2cc(Cl)cc(C#N)c2)c1F` (centres unmarked): 117.8 to 120 °C.
Consider `N#Cc1cc(Cl)cc(Oc2c(Br)ccc(CC(=O)Nc3ccc(C(=O)NCCN4CCCC4)cc3Cl)c2F)c1`, for which the melting point lay in the range of 197.7 to 198.3 °C.
Same read-out and setting: the same measure for `N#Cc1cc(Oc2c(Br)ccc(CC(=O)Nc3ccc(C(=O)NCCN4CCCC4)cc3Cl)c2F)cc(C(F)F)c1`: 160 to 165.7 °C; for `Cc1cc(C(=O)NCCN2CCCC2)ccc1NC(=O)Cc1ccc(Br)c(Oc2cc(C#N)cc(C(F)F)c2)c1F`: 202.4 to 203.7 °C.
The compound `Cc1cc(C(=O)NC[C@@H](C)O)ccc1NC(=O)Cc1ccc(Br)c(Oc2cc(C#N)cc(C(F)F)c2)c1F` gave a melting point of 225.5 to 228.8 °C.
Same read-out and setting: next, `N#Cc1cc(Cl)cc(Oc2c(Br)ccc(CC(=O)Nc3ccc(C(=O)NC(=N)N)cc3Cl)c2F)c1`: 207 to 209 °C; `Cc1cc(C(=O)NCCN(C)C)ccc1NC(=O)Cc1ccc(Cl)c(Oc2cc(Cl)cc(C#N)c2)c1F`: 213.3 to 216 °C.
Still for that read-out and setting: the same measure for `N#Cc1cc(Cl)cc(Oc2c(Br)ccc(CC(=O)Nc3ccc(C(=O)NCCN(CCO)CCO)cc3Cl)c2F)c1`: 100.1 °C.
Still for that read-out and setting: next, `CC(CN(C)C)NC(=O)c1ccc(NC(=O)Cc2ccc(Br)c(Oc3cc(Cl)cc(C#N)c3)c2F)c(Cl)c1` (centres unmarked): 190.1 °C.
In turn, `CCN1CCCC1CNC(=O)c1ccc(NC(=O)Cc2ccc(Br)c(Oc3cc(Cl)cc(C#N)c3)c2F)c(Cl)c1` (centres unmarked) returned a melting point of 212 °C.
As to `CC1CC[C@@H](C)N1CCNC(=O)c1ccc(NC(=O)Cc2ccc(Br)c(Oc3cc(Cl)cc(C#N)c3)c2F)c(Cl)c1` (some centres unmarked), the melting point lay in the range of 179 to 181 °C.
Still for that read-out and setting: the same measure for `CC1(NC(=O)c2ccc(NC(=O)Cc3ccc(Br)c(Oc4cc(Cl)cc(C#N)c4)c3F)c(Cl)c2)CCNCC1.O=C(O)C(F)(F)F`: 130.5 °C; for `CC(C)(CN)NC(=O)c1ccc(NC(=O)Cc2ccc(Br)c(Oc3cc(Cl)cc(C#N)c3)c2F)c(Cl)c1.Cl`: 158 to 160.8 °C; for `N#Cc1cc(Cl)cc(Oc2c(Br)ccc(CC(=O)Nc3ccc(C(=O)NC4(CO)CC4)cc3Cl)c2F)c1`: 247.7 to 250.1 °C.
The same measure, in the same setting: next, `CC1(NC(=O)c2ccc(NC(=O)Cc3ccc(Br)c(Oc4cc(Cl)cc(C#N)c4)c3F)c(Cl)c2)CCS(=O)(=O)C1` (centres unmarked): 95 to 105 °C; `CS(=O)(=O)CCNC(=O)c1ccc(NC(=O)Cc2ccc(Br)c(Oc3cc(Cl)cc(C#N)c3)c2F)c(Cl)c1`: 235.5 °C.
Turning to `N#Cc1cc(Cl)cc(Oc2c(Br)ccc(CC(=O)Nc3ccc(C(=O)N[C@@H]4CS(=O)(=O)C[C@H]4O)cc3Cl)c2F)c1`, the melting point came to 245 °C.
Same read-out and setting: the same measure for `CN1CCC(C)(NC(=O)c2ccc(NC(=O)Cc3ccc(Br)c(Oc4cc(Cl)cc(C#N)c4)c3F)c(Cl)c2)CC1`: 96 °C.
Compound `N#Cc1cc(Cl)cc(Oc2c(Br)ccc(CC(=O)Nc3ccc(C(=O)NC4(CN)CC4)cc3Cl)c2F)c1.O=C(O)C(F)(F)F` displayed a melting point of 148 to 152.4 °C.
Still for that read-out and setting: the same measure for `CC(CO)(CO)NC(=O)c1ccc(NC(=O)Cc2ccc(Br)c(Oc3cc(Cl)cc(C#N)c3)c2F)c(Cl)c1`: 69.1 °C; for `Cc1cc(C(=O)NC[C@@H](C)O)ccc1NC(=O)Cc1ccc(Cl)c(Oc2cc(Cl)cc(C#N)c2)c1F` [Compound I-10, 4-{2-[4-Chloro-3-(3-chloro-5-cyano-phenoxy)-2-fluoro-phenyl]-acetylamino}-N-((R)-2-hydroxy-propyl)-3-methyl-benzamide]: 249 to 249.4 °C.
Same read-out and setting: next, `Cc1cc(C(=O)NCCN2CCC(O)CC2)ccc1NC(=O)Cc1ccc(Br)c(Oc2cc(Cl)cc(C#N)c2)c1F` [Compound I-25, 4-{2-[4-Bromo-3-(3-chloro-5-cyano-phenoxy)-2-fluoro-phenyl]-acetylamino}-N-[2-(4-hydroxy-piperidin-1-yl)-ethyl]-3-methyl-benzamide]: 219.6 to 221.6 °C; `Cc1cc(C(=O)NCCN2CCNCC2)ccc1NC(=O)Cc1ccc(Br)c(Oc2cc(Cl)cc(C#N)c2)c1F` [Compound I-30, 4-{2-[4-Bromo-3-(3-chloro-5-cyano-phenoxy)-2-fluoro-phenyl]-acetylamino}-3-methyl-N-(2-piperazin-1-yl-ethyl)-benzamide]: 126.5 to 127 °C.

Usually IC50 stands for the midpoint of a concentration-inhibition curve. A word on the melting point: it is the temperature, or range, at which the solid turns liquid.
